This note sets out measurements from article PMC5504357, “Antifungal Potential of Copper(II), Manganese(II) and Silver(I) 1,10-Phenanthroline Chelates Against Multidrug-Resistant Fungal Species Forming the Candida haemulonii Complex: Impact on the Planktonic and Biofilm Lifestyles” (Frontiers in Microbiology, 2017).

Structures are written as SMILES. In brackets after ≈: the same amount, converted by molar mass. Where two headings read alike, the source gives them in different places.

The subject of one series is C. haemulonii complex. Put plainly: Planktonic growth, overall across all nine isolates. Type of series: cell-based, Candida haemulonii complex. To be noted: for Overall GM-MIC / MIC: geometric mean across all nine strains; for MIC: read-out: Overall GM-MIC; for effect on planktonic fungal growth/viability (in words): nine clinical isolates, 0.0625-32 mg/L. The source says:
(§1) Three clinical isolates of each species that form the C. haemulonii complex were used in this study: C. haemulonii (LIPCh4 from finger nail, LIPCh7 from toe nail, and LIPCh12 from blood), C. duobushaemulonii (LIPCh1 from finger nail, LIPCh6 from toe nail, and LIPCh8 from blood) and C. haemulonii var. vulnera (LIPCh5 from toe nail, LIPCh9 from urine, and LIPCh11 from blood) (Ramos et al., [2015]). The fungal isolates were identified by the automatized system VITEK® 2 and then characterized by ITS1-5.8S-ITS2 gene sequencing (Ramos et al., [2015]). Fungal cells were cultured in Sabouraud-dextrose medium under constant agitation (130 rpm) for 48 h at 37°C. Human lung adenocarcinoma A549 cells were maintained in culture flasks containing DMEM medium supplemented with 10% fetal bovine serum at 37°C in an atmosphere of 5% CO2.
(§2) Susceptibility profile assays were performed in accordance with the broth microdilution protocol described in the document M27-A3 published by the Clinical and Laboratory Standards Institutes (CLSI, [2008]). Samples of the test chelates were dissolved in DMSO (500 μL) and then serially diluted in a 96-well plate containing RPMI 1640 (Sigma-Aldrich, USA) to give the concentration range of 0.0625-32 mg/L. Aqueous solutions of the metal-free phen ligand and the simple metal salts, MnCl2, CuCl2, and AgNO3, were also screened over the same concentration range. Caspofungin (Sigma-Aldrich) was used as a classical antifungal agent able to block the growth of all clinical isolates of C. haemulonii species as previously reported by our research group (Ramos et al., [2015]). Water dilutions containing DMSO concentrations corresponding to those used to prepare the drug solutions were assessed in parallel. Untreated and compound-treated fungal cells were incubated at 37°C for 48 h and the minimal inhibitory concentration (MIC) was established as the lowest compound concentration where no cellular growth could be detected by visual inspection in accordance to the CLSI recommendation. The geometric mean of the MIC values (GM-MIC) of each compound against all the fungal isolates was calculated using the software, Microsoft Office Excel 2013.

The subject of another series is A549 cells. As to the kind of experiment: Mammalian cell toxicity (MTT assay) and selectivity index. The format is cell-based, Human.
Description: as §1
The cytotoxicity was evaluated using the MTT [3-(4,5-dimethylthiazol-2-yl)-2,5-diphenyl tetrazolium bromide] (Sigma-Aldrich) assay (Mosmann, [1983]). A549 cells (10^4) were seeded into tissue culture plates (TPP, Switzerland) and cultured for 24 h at 37°C in a 5% CO2 in order to obtain cellular confluence. The wells were then washed twice with DMEM to remove non-adherent cells and the test compounds were added (in concentrations ranging from 0.0313 to 512 μg/mL) to plates containing DMEM, followed by a 48 h incubation period under the same conditions mentioned above. The cellular viability was evaluated by adding MTT to each well and incubating the plates in the dark for 3 h, allowing the viable cells containing active mitochondrial dehydrogenase enzymes to metabolize MTT-tetrazolium salt into purple formazan. The formazan crystals were then dissolved in DMSO (100 μL) and the absorbance (450 nm) measured using a Thermomax Molecular Device microplate reader. The concentration capable of reducing cellular viability by 50% (CC50) was calculated, and the selectivity index (SI) determined using the following equation: A549 CC50/C. haemulonii complex GM-MIC.
(In general: Tetrazolium dyes change colour on reduction, which living cells bring about.)

Series [1] has as its system Candida haemulonii var. vulnera. As to the kind of experiment: Planktonic growth, broth microdilution (CLSI M27-A3), MIC. The format is cell-based.
Description: as §1, §2
A general note: Dilution methods test growth across graded concentrations, often in twofold steps.

A further series has as its system Candida duobushaemulonii. The series is described as above. Type of series: cell-based.
Description: as §1, §2

Another series relates to Candida haemulonii. The description is as above. Type of series: cell-based.
Description: as §1, §2

Where [2] appears, read: geometric mean of three C. haemulonii var. vulnera isolates.
Setting [3] is: isolate LIP Ch5, planktonic, 48 h, 37°C.
The mark [4] stands for this setting: isolate LIP Ch9, planktonic, 48 h, 37°C.
The mark [5] stands for this setting: isolate LIP Ch11, planktonic, 48 h, 37°C.
The mark [6] stands for this setting: geometric mean of three C. duobushaemulonii isolates.
The mark [7] stands for this setting: isolate LIP Ch1, planktonic, 48 h, 37°C.
[8] abbreviates: isolate LIP Ch6, planktonic, 48 h, 37°C.
The mark [9] stands for this setting: isolate LIP Ch8, planktonic, 48 h, 37°C.
Where [10] appears, read: geometric mean of three C. haemulonii isolates.
[11] abbreviates: isolate LIP Ch4, planktonic, 48 h, 37°C.
The mark [12] stands for this setting: isolate LIP Ch7, planktonic, 48 h, 37°C.
Where [13] appears, read: isolate LIP Ch12, planktonic, 48 h, 37°C.

One may read the MIC as the smallest concentration in the dilution series that meets the test's criterion for growth inhibition. Take `CCO.CCO.O.O.O.O=C([O-])c1ccccc1C(=O)[O-].[Cu+2].c1cnc2c(c1)ccc1cccnc12.c1cnc2c(c1)ccc1cccnc12` [compound 2, [Cu(ph)(phen)2].3H2O.2EtOH]: in the series on C. haemulonii complex, the “Overall GM-MIC” value was > 32 µg/mL. For the same compound, the MIC in the series on C. haemulonii complex (in μM) is > 43.52 µM; in series [1] (setting [3]) it was >32 µg/mL; in series [1] (setting [4]) it was >32 µg/mL; in series [1] (setting [5]), >32 µg/mL; with Candida duobushaemulonii (setting [7]) it was >32 µg/mL; against Candida duobushaemulonii (setting [8]), >32 µg/mL. Besides, the MIC against Candida duobushaemulonii (setting [9]), in the series with Candida haemulonii (setting [11]), in the series on Candida haemulonii (setting [12]) and against Candida haemulonii (setting [13]) was >32 µg/mL each time. Also, the “A549 (CC50)” value in the series on A549 cells turned out to be 1.93 µg/mL. For the same compound, the GM-MIC (in series [1] (setting [2]); in the series on Candida duobushaemulonii (setting [6]); in the series on Candida haemulonii (setting [10])) was >32 µg/mL throughout.
Regarding `CC[C@H](C)C[C@H](C)CCCCCCCCC(=O)N[C@H]1C[C@@H](O)[C@@H](NCCN)NC(=O)[C@@H]2[C@@H](O)CCN2C(=O)[C@H]([C@H](O)CCN)NC(=O)[C@H]([C@H](O)[C@@H](O)c2ccc(O)cc2)NC(=O)[C@@H]2C[C@@H](O)CN2C(=O)[C@H]([C@@H](C)O)NC1=O` [Caspofungin, reference compound], the MIC in the series with C. haemulonii complex (Candidozyma haemuli, in μM) was determined as 0.18 µM; in the series on C. haemulonii complex (Candidozyma haemuli) it was 0.23 µg/mL; in series [1] (Candidozyma haemuli, 48 h, isolate LIP Ch5, planktonic, 48 h, 37°C, read-out: MIC), 0.25 µg/mL (≈ 0.229 µM); in series [1] (Candidozyma haemuli, 48 h, isolate LIP Ch9, planktonic, 48 h, 37°C, read-out: MIC), 0.25 µg/mL (≈ 0.229 µM); in series [1] (Candidozyma haemuli, 48 h, isolate LIP Ch11, planktonic, 48 h, 37°C, read-out: MIC), 0.5 µg/mL (≈ 0.457 µM); in series [1] (Candidozyma haemuli, geometric mean of three C. haemulonii var. vulnera isolates, read-out: GM-MIC) it was 0.315 µg/mL (≈ 0.288 µM). For the same compound, the MIC against Candida duobushaemulonii (Candidozyma duobushaemuli, 48 h) amounted to 0.125 µg/mL (≈ 0.114 µM); with Candida duobushaemulonii (Candidozyma duobushaemuli, 48 h, isolate LIP Ch6, planktonic, 48 h, 37°C, read-out: MIC), 0.25 µg/mL (≈ 0.229 µM); in the series on Candida duobushaemulonii (Candidozyma duobushaemuli, geometric mean of three C. duobushaemulonii isolates, read-out: GM-MIC), 0.157 µg/mL (≈ 0.144 µM); in the series on Candida duobushaemulonii (setting [7]), 0.125 µg/mL (≈ 0.114 µM); with Candida haemulonii (Candidozyma haemuli, 48 h), 0.125 µg/mL (≈ 0.114 µM); in the series on Candida haemulonii (Candidozyma haemuli, 48 h, isolate LIP Ch4, planktonic, 48 h, 37°C, read-out: MIC), 0.5 µg/mL (≈ 0.457 µM). Moreover, the minimal inhibitory concentration (MIC) is 0.25 µg/mL (≈ 0.229 µM) in the series on Candida haemulonii (Candidozyma haemuli, 48 h, isolate LIP Ch7, planktonic, 48 h, 37°C, read-out: MIC) and 0.25 µg/mL (≈ 0.229 µM) with Candida haemulonii (Candidozyma haemuli, geometric mean of three C. haemulonii isolates, read-out: GM-MIC).
Consider `CCO.CCO.O=C([O-])c1ccc(C(=O)[O-])cc1.O=C([O-])c1ccc(C(=O)[O-])cc1.[Cu+2].[Cu+2].c1cnc2c(c1)ccc1cccnc12.c1cnc2c(c1)ccc1cccnc12.c1cnc2c(c1)ccc1cccnc12.c1cnc2c(c1)ccc1cccnc12` [compound 4, [{Cu(phen)2}2(terph)](terph).13.5H2O.2EtOH], for which the “Overall GM-MIC” value in the series on C. haemulonii complex is > 32 µg/mL. In addition, the MIC in the series with C. haemulonii complex (in μM) was > 21.92 µM; in series [1] (setting [3]), 32 µg/mL; in series [1] (setting [4]) it was 32 µg/mL; in series [1] (setting [5]) it was 32 µg/mL; with Candida duobushaemulonii (setting [7]), >32 µg/mL; with Candida duobushaemulonii (setting [8]), >32 µg/mL. The MIC against Candida duobushaemulonii (setting [9]), in the series with Candida haemulonii (setting [11]), in the series on Candida haemulonii (setting [12]) and against Candida haemulonii (setting [13]) was >32 µg/mL in each case. For the same compound, the “A549 (CC50)” value with A549 cells (MTT, 48 h incubation) was found to be 3.86 µg/mL. Besides, the GM-MIC in series [1] (setting [2]) was 32 µg/mL; with Candida duobushaemulonii (setting [6]) it was >32 µg/mL; with Candida haemulonii (setting [10]), >32 µg/mL.
For the compound `O.O.O=C([O-])c1ccccc1C(=O)[O-].[Cu+2].c1cnc2c(c1)ccc1cccnc12` [compound 1, [Cu(ph)(phen)(H2O)2]], the “Overall GM-MIC” value with C. haemulonii complex was > 32 µg/mL. The MIC in the series on C. haemulonii complex (in μM) was > 72 µM; in series [1] (setting [3]) it was >32 µg/mL; in series [1] (setting [4]), >32 µg/mL; in series [1] (setting [5]) it was >32 µg/mL; in the series with Candida duobushaemulonii (setting [7]) it was >32 µg/mL; in the series with Candida duobushaemulonii (setting [8]), >32 µg/mL. For the same compound, the MIC in the series with Candida duobushaemulonii (setting [9]), against Candida haemulonii (setting [11]), in the series with Candida haemulonii (setting [12]) and against Candida haemulonii (setting [13]) was >32 µg/mL in each case. For the same compound, the “A549 (CC50)” value in the series with A549 cells amounted to 0.53 µg/mL. For the same compound, the GM-MIC (in series [1] (setting [2]); with Candida duobushaemulonii (setting [6]); in the series with Candida haemulonii (setting [10])) was >32 µg/mL throughout.
For the compound `[Cl][Mn][Cl]` [MnCl2, reference compound], the “Overall GM-MIC” value in the series with C. haemulonii complex was > 32 µg/mL. The “effect on planktonic fungal growth/viability (in words)” value in the series on C. haemulonii complex is “no appreciable effects”. In addition, the “A549 (CC50)” value in the series on A549 cells (MTT, 48 h incubation) was 133.76 µg/mL. The GM-MIC (in series [1] (setting [2]); with Candida duobushaemulonii (setting [6]); in the series on Candida haemulonii (setting [10])) was >32 µg/mL each time. In addition, the MIC (in series [1] (setting [3]); in series [1] (setting [4]); in series [1] (setting [5]); against Candida duobushaemulonii (setting [7]); against Candida duobushaemulonii (setting [8]); with Candida duobushaemulonii (setting [9])) was >32 µg/mL each time. Also, the MIC with Candida haemulonii (setting [11]), with Candida haemulonii (setting [12]) and against Candida haemulonii (setting [13]) was >32 µg/mL each time.
With `[Cl][Cu][Cl]` [CuCl2, reference compound], in the series on C. haemulonii complex, the “Overall GM-MIC” value is > 32 µg/mL. In the series on C. haemulonii complex, the “effect on planktonic fungal growth/viability (in words)” value was “no appreciable effects”. For the same compound, the “A549 (CC50)” value with A549 cells (MTT, 48 h incubation) turned out to be 123.68 µg/mL. The GM-MIC (in series [1] (setting [2]); with Candida duobushaemulonii (setting [6]); in the series with Candida haemulonii (setting [10])) was >32 µg/mL each time. Also, the minimal inhibitory concentration (MIC) (in series [1] (setting [3]); in series [1] (setting [4]); in series [1] (setting [5]); in the series with Candida duobushaemulonii (setting [7]); against Candida duobushaemulonii (setting [8]); in the series on Candida duobushaemulonii (setting [9])) was >32 µg/mL throughout. Also, the MIC against Candida haemulonii (setting [11]), against Candida haemulonii (setting [12]) and against Candida haemulonii (setting [13]) was >32 µg/mL in each case.
